Data published in ChEMBL document CHEMBL1134261, “Synthesis of anticonvulsive AMPA antagonists: 4-oxo-10-substituted-imidaz” (Bioorg Med Chem Lett, 2001).

Key:
Glutamate NMDA receptor = assay: Displacement of [3H]DCKA from glycine NMDA receptor of rat cortical membranes; format: cell membranes, Membrane
[1] = target: Glutamate receptor ionotropic, AMPA (Rattus norvegicus, UniProt P19490+P19491+P19492+P19493); assay: Displacement of [3H]AMPA from Ionotropic glutamate receptor AMPA of rat cortical membranes; format: cell membranes, Membrane
Mus musculus [2] = assay: In vivo effective dose required to protect 6 male CD1 mice against tonic convulsions following iv administration for a pretreatment time of 60 min; format: functional
Xenopus sp. = organism: Xenopus sp.; assay: Inhibition of currents generated by 50 uM kainate in Xenopus oocytes injected with rat brain mRNA; format: functional, organism-based, frog
Mus musculus [3] = assay: In vivo effective dose required to protect 6 male CD1 mice against tonic convulsions following iv administration for a pretreatment time of 5 min; format: functional
Mus musculus [4] = assay: In vivo effective dose required to protect 6 male CD1 mice against tonic convulsions following ip administration for a pretreatment time of 30 min; format: functional
Mus musculus [5] = assay: In vivo effective dose required to protect 6 male CD1 mice against tonic convulsions following iv administration for a pretreatment time of 30 min; format: functional

| IC50 (Xenopus sp.) [nM] | Structure (SMILES) | IC50 (Glutamate NMDA receptor) [nM] | IC50 [1] [nM] | ED50 (Mus musculus [2]) [mg/kg] | ED50 (Mus musculus [3]) [mg/kg] | ED50 (Mus musculus [4]) [mg/kg] | ED50 (Mus musculus [5]) [mg/kg] |
| --- | --- | --- | --- | --- | --- | --- | --- |
| 22 | CC1(CCCCC(=O)O)c2ccccc2-c2nc(O)c3nc(C(=O)O)cn3c21 (configuration not stated) | 134 | 242 | 15 | 9.5 | 10 | – |
| 29 | O=C(O)c1cn2c3c(nc(O)c2n1)-c1ccccc1C3 | – | – | – | – | – | – |
| 130 | NC1c2ccccc2-c2nc(O)c3nc(C(=O)O)cn3c21 (configuration not stated) | 158 | 93 | > 40 | 7 | 19 | 25 |
| 1800 | Oc1nc2c(n3ccnc13)Cc1ccccc1-2 | – | – | – | – | – | – |
| 6 | O=C(O)CCC(=O)NC1c2ccccc2-c2nc(O)c3nc(C(=O)O)cn3c21 (configuration not stated) | 230 | 35 | 3 | 1.7 | 2.5 | 1.7 |

Second part, the compound before the results:

| Structure (SMILES) | IC50 (Xenopus sp.) [nM] | IC50 (Glutamate NMDA receptor) [nM] | IC50 [1] [nM] | ED50 (Mus musculus [2]) [mg/kg] | ED50 (Mus musculus [3]) [mg/kg] | ED50 (Mus musculus [4]) [mg/kg] | ED50 (Mus musculus [5]) [mg/kg] |
| --- | --- | --- | --- | --- | --- | --- | --- |
| O=C(O)c1cn2c3c(nc(O)c2n1)-c1ccccc1C3=O | 320 | 422 | 580 | – | – | – | – |
| O=C(O)c1cn2c3c(nc(O)c2n1)-c1ccccc1C3N1CC=CC1=O (configuration not stated) | – | 184 | 23 | – | 7.7 | 20 | – |
| O=C(Nc1ccccc1)NC1c2ccccc2-c2nc(O)c3nc(C(=O)O)cn3c21 (configuration not stated) | 30 | 18 | 159 | – | – | 80 | – |
| O=C(O)c1cn2c3c(nc(O)c2n1)-c1ccccc1C3n1cccc1 (configuration not stated) | 60 | 32 | 55 | 17 | 10 | 26 | 15 |
| O=Nc1c2n3cc(C(=O)O)[nH]c3c(O)nc-2c2ccccc12 | 130 | 593 | 167 | – | – | > 80 | – |
| O=C(O)CCCO/N=C1\c2ccccc2-c2nc(O)c3nc(C(=O)O)cn3c21 | 5 | 1400 | 44 | – | – | > 80 | – |
| O=c1[nH]c2cc(C(F)(F)F)c(N3CCOCC3)cc2n(CP(=O)(O)O)c1=O [FANAPANEL] | 31 | > 10000 | – | – | 36 | 36 | – |
| O=C(O)[C@@H]1C[C@H]2C[C@@H](CCc3nn[nH]n3)CC[C@H]2CN1 [TEZAMPANEL ANHYDROUS] | 233 | – | – | – | – | – | – |
| O=c1[nH]c2cc(-n3ccnc3)c([N+](=O)[O-])cc2[nH]c1=O [YM-90K] | 260 | – | – | 40 | 6.2 | – | 24 |
